How the values were obtained:
lipase = assay: Lipase activity retention in detergent use solution (4000 ppm, 5 GPG water; p-nitrophenyl valerate, TRIS buffer pH 8.0); type: biochemical; conditions: for Relative Lipase Enzyme Activity in a Use Solution: Table 6E, room temperature; for Relative Lipase Enzyme Activity in a Use Solution of the All Ash Detergent Composition: Table 6F, all ash formula, 120º F.; for Relative Lipase Enzyme Activity: base formula
Outline: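 Lipase stability was measured in a detergent use solution under conditions mimicking presoak or manual warewash, with stirring in a water bath. Aliquots were taken over time and flash-frozen. Thawed samples were diluted in TRIS buffer at pH 8.0 and assayed with p-nitrophenyl valerate as substrate on a plate reader. Activity is reported as % retained relative to the time=0 sample.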

[1] = test system: enzyme (protease, amylase, lipase); assay: Overall effects of phosphonates on enzyme activity (Table 3); type: biochemical; conditions: overall effect of the phosphonate on enzyme activity in the detergent use solution
Outline: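 Protease, amylase and lipase activity in detergent use solutions with varied phosphonate levels, 4000 ppm in 5 GPG water at 120° F., sampled up to 4 h and frozen at −80° C. before assay. Activity given as % retention relative to t=0 (100%).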

[2] = phosphonate 0.3 wt-%, time 90 min
[3] = phosphonate 0.3 wt-%, time 120 min
[4] = phosphonate 0.3 wt-%, time 150 min
[5] = phosphonate 0.3 wt-%, time 180 min
[6] = phosphonate 0.3 wt-%, time 210 min
[7] = phosphonate 0.3 wt-%, time 240 min

O=C(O)CCC(CC(=O)O)(C(=O)O)P(=O)(O)O (stereo not shown) [PBTC, Phosphonebutane tricarboxylic acid]
Relative Lipase Enzyme Activity in a Use Solution (lipase; [2]): 104.82% | Relative Lipase Enzyme Activity in a Use Solution (lipase; [3]): 102.36% | Relative Lipase Enzyme Activity in a Use Solution (lipase; [4]): 105.67% | Relative Lipase Enzyme Activity in a Use Solution (lipase; [5]): 81.94% | Relative Lipase Enzyme Activity in a Use Solution (lipase; [6]): 101.51% | Relative Lipase Enzyme Activity in a Use Solution (lipase; [7]): 110.35% | Relative Lipase Enzyme Activity in a Use Solution of the All Ash Detergent Composition (lipase; phosphonate 0.3 wt-%, time 0 min): 100.00% | Relative Lipase Enzyme Activity in a Use Solution of the All Ash Detergent Composition (lipase; phosphonate 0.3 wt-%, time 5 min): 44.27% | Relative Lipase Enzyme Activity in a Use Solution of the All Ash Detergent Composition (lipase; phosphonate 0.3 wt-%, time 10 min): 26.34% | Relative Lipase Enzyme Activity in a Use Solution of the All Ash Detergent Composition (lipase; phosphonate 0.3 wt-%, time 20 min): 13.39% | Relative Lipase Enzyme Activity in a Use Solution of the All Ash Detergent Composition (lipase; phosphonate 0.3 wt-%, time 40 min): 3.62% | Relative Lipase Enzyme Activity in a Use Solution of the All Ash Detergent Composition (lipase; phosphonate 0.3 wt-%, time 60 min): 1.82% | Relative Lipase Enzyme Activity in a Use Solution of the All Ash Detergent Composition (lipase; [2]): 0.36% | Relative Lipase Enzyme Activity in a Use Solution of the All Ash Detergent Composition (lipase; [3]): 0.52% | Relative Lipase Enzyme Activity in a Use Solution of the All Ash Detergent Composition (lipase; [4]): 2.28% | Relative Lipase Enzyme Activity in a Use Solution of the All Ash Detergent Composition (lipase; [5]): 2.33% | Relative Lipase Enzyme Activity in a Use Solution of the All Ash Detergent Composition (lipase; [6]): 3.25% | Relative Lipase Enzyme Activity in a Use Solution of the All Ash Detergent Composition (lipase; [7]): 3.58% | Relative Lipase Enzyme Activity (lipase; phosphonate 0.3 wt-%, use solution at 120° F., time 0 min): 100.00% | Relative Lipase Enzyme Activity (lipase; phosphonate 0.3 wt-%, use solution at 120° F., time 5 min): 73.63% | Relative Lipase Enzyme Activity (lipase; phosphonate 0.3 wt-%, use solution at 120° F., time 10 min): 66.55% | Relative Lipase Enzyme Activity (lipase; phosphonate 0.3 wt-%, use solution at 120° F., time 20 min): 48.22% | Relative Lipase Enzyme Activity (lipase; phosphonate 0.3 wt-%, use solution at 120° F., time 40 min): 26.23% | Relative Lipase Enzyme Activity (lipase; phosphonate 0.3 wt-%, use solution at 120° F., time 60 min): 15.51% | Relative Lipase Enzyme Activity (lipase; phosphonate 0.3 wt-%, use solution at 120° F., time 90 min): 7.72% | Relative Lipase Enzyme Activity (lipase; phosphonate 0.3 wt-%, use solution at 120° F., time 120 min): 3.90% | Relative Lipase Enzyme Activity (lipase; phosphonate 0.3 wt-%, use solution at 120° F., time 150 min): 2.70% | Relative Lipase Enzyme Activity (lipase; phosphonate 0.3 wt-%, use solution at 120° F., time 180 min): −0.75% | Relative Lipase Enzyme Activity (lipase; phosphonate 0.3 wt-%, use solution at 120° F., time 210 min): −1.86% | Relative Lipase Enzyme Activity (lipase; phosphonate 0.3 wt-%, use solution at 120° F., time 240 min): −2.20% | Relative Lipase Enzyme Activity (lipase; phosphonate 0.6 wt-%, use solution at 120º F., time 0 min): 100.00% | Relative Lipase Enzyme Activity (lipase; phosphonate 0.6 wt-%, use solution at 120º F., time 5 min): 61.52% | Relative Lipase Enzyme Activity (lipase; phosphonate 0.6 wt-%, use solution at 120º F., time 10 min): 62.20% | Relative Lipase Enzyme Activity (lipase; phosphonate 0.6 wt-%, use solution at 120º F., time 20 min): 44.99% | Relative Lipase Enzyme Activity (lipase; phosphonate 0.6 wt-%, use solution at 120º F., time 40 min): 31.89% | Relative Lipase Enzyme Activity (lipase; phosphonate 0.6 wt-%, use solution at 120º F., time 60 min): 23.30% | Relative Lipase Enzyme Activity (lipase; phosphonate 0.6 wt-%, use solution at 120º F., time 90 min): 16.36% | Relative Lipase Enzyme Activity (lipase; phosphonate 0.6 wt-%, use solution at 120º F., time 120 min): 12.11% | Relative Lipase Enzyme Activity (lipase; phosphonate 0.6 wt-%, use solution at 120º F., time 150 min): 9.68% | Relative Lipase Enzyme Activity (lipase; phosphonate 0.6 wt-%, use solution at 120º F., time 180 min): 6.06% | Relative Lipase Enzyme Activity (lipase; phosphonate 0.6 wt-%, use solution at 120º F., time 210 min): 6.80% | Relative Lipase Enzyme Activity (lipase; phosphonate 0.6 wt-%, use solution at 120º F., time 240 min): 5.96% | Relative Lipase Enzyme Activity (lipase; phosphonate at 0.1% elemental phosphorus, at 120º F. or at room temperature (as titled), time 0 min): 100.00% | Relative Lipase Enzyme Activity (lipase; phosphonate at 0.1% elemental phosphorus, at 120º F. or at room temperature (as titled), time 5 min): 87.75% | Relative Lipase Enzyme Activity (lipase; phosphonate at 0.1% elemental phosphorus, at 120º F. or at room temperature (as titled), time 10 min): 73.69% | Relative Lipase Enzyme Activity (lipase; phosphonate at 0.1% elemental phosphorus, at 120º F. or at room temperature (as titled), time 20 min): 56.53% | Relative Lipase Enzyme Activity (lipase; phosphonate at 0.1% elemental phosphorus, at 120º F. or at room temperature (as titled), time 40 min): 25.32% | Relative Lipase Enzyme Activity (lipase; phosphonate at 0.1% elemental phosphorus, at 120º F. or at room temperature (as titled), time 60 min): 19.97% | Relative Lipase Enzyme Activity (lipase; phosphonate at 0.1% elemental phosphorus, at 120º F. or at room temperature (as titled), time 90 min): 15.95% | Relative Lipase Enzyme Activity (lipase; phosphonate at 0.1% elemental phosphorus, at 120º F. or at room temperature (as titled), time 120 min): 12.52% | Relative Lipase Enzyme Activity (lipase; phosphonate at 0.1% elemental phosphorus, at 120º F. or at room temperature (as titled), time 150 min): 11.11% | Relative Lipase Enzyme Activity (lipase; phosphonate at 0.1% elemental phosphorus, at 120º F. or at room temperature (as titled), time 180 min): 10.01% | Relative Lipase Enzyme Activity (lipase; phosphonate at 0.1% elemental phosphorus, at 120º F. or at room temperature (as titled), time 210 min): 9.16% | Relative Lipase Enzyme Activity (lipase; phosphonate at 0.1% elemental phosphorus, at 120º F. or at room temperature (as titled), time 240 min): 9.12% | Stability (effects on enzyme activity) [1]: No
